The source of these data is ChEMBL document CHEMBL1287643, “3D-QSAR pharmacophore modeling and in silico screening of new Bcl-xl inhibitors” (Eur J Med Chem, 2010).

By EC50 is commonly meant the concentration needed to bring the measured effect to its halfway point. High values mean a less potent agent, low ones a more potent agent.

In the assay the target is Bcl-2-like protein 1 (Homo sapiens, UniProt Q07817). Kind of assay: Inhibition of Bcl-XL.
Sequence of Bcl-2-like protein 1 (Q07817 whole entry): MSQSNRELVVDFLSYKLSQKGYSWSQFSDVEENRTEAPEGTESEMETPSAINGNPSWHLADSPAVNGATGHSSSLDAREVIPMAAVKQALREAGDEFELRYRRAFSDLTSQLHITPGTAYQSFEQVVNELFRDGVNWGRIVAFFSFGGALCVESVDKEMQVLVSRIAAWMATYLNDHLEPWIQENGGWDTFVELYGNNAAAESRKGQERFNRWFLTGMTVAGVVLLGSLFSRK
With `COC1(Cc2ccccc2)CCN(c2ccc(C(=O)NS(=O)(=O)c3ccc(NC(CCN(C)C)CSc4ccccc4)c([N+](=O)[O-])c3)cc2)CC1` (stereo unspecified), the midpoint of the response, the EC50, lay at 681 nM.
Compound `CN(C)CCC(CSc1ccccc1)Nc1ccc(S(=O)(=O)NC(=O)c2ccc(N3CCC(=Cc4ccc(F)cc4)CC3)cc2)cc1[N+](=O)[O-]` (stereo unspecified) gave an EC50 of 380 nM.
Regarding `CN(C)CCC(CSc1ccccc1)Nc1ccc(S(=O)(=O)NC(=O)c2ccc(N3CCN(Cc4ccccc4)CC3)cc2)cc1[N+](=O)[O-]` (stereo unspecified), the half-maximal effective concentration (EC50) is 1100 nM.
The compound `COC1(CC(C)C)CCN(c2ccc(C(=O)NS(=O)(=O)c3ccc(NC(CCN(C)C)CSc4ccccc4)c([N+](=O)[O-])c3)cc2)CC1` (stereo unspecified) showed an EC50 of 579 nM.
In turn, `COC1(CC(C)(C)C)CCN(c2ccc(C(=O)NS(=O)(=O)c3ccc(NC(CCN(C)C)CSc4ccccc4)c([N+](=O)[O-])c3)cc2)CC1` (stereo unspecified) showed an EC50 of 750 nM.
Consider `COC1(CC2CCCCC2)CCN(c2ccc(C(=O)NS(=O)(=O)c3ccc(NC(CCN(C)C)CSc4ccccc4)c([N+](=O)[O-])c3)cc2)CC1` (stereo unspecified), for which the response was half-maximal at 320 nM (EC50).
`COC1(Cc2ccccc2Cl)CCN(c2ccc(C(=O)NS(=O)(=O)c3ccc(NC(CCN(C)C)CSc4ccccc4)c([N+](=O)[O-])c3)cc2)CC1` (stereo unspecified): the EC50 was 230 nM.
`COC1(Cc2cccc(Cl)c2)CCN(c2ccc(C(=O)NS(=O)(=O)c3ccc(NC(CCN(C)C)CSc4ccccc4)c([N+](=O)[O-])c3)cc2)CC1` (stereo unspecified) showed an EC50 of 250 nM.
As for `COC1(Cc2ccc(Cl)cc2)CCN(c2ccc(C(=O)NS(=O)(=O)c3ccc(NC(CCN(C)C)CSc4ccccc4)c([N+](=O)[O-])c3)cc2)CC1` (stereo unspecified), the figure is 400 nM; as for `COC1(Cc2ccccc2F)CCN(c2ccc(C(=O)NS(=O)(=O)c3ccc(NC(CCN(C)C)CSc4ccccc4)c([N+](=O)[O-])c3)cc2)CC1` (stereo unspecified), 180 nM.
Turning to `COC1(Cc2ccccc2C)CCN(c2ccc(C(=O)NS(=O)(=O)c3ccc(NC(CCN(C)C)CSc4ccccc4)c([N+](=O)[O-])c3)cc2)CC1` (stereo unspecified), the EC50 was 150 nM.
For the compound `COc1ccccc1CC1(OC)CCN(c2ccc(C(=O)NS(=O)(=O)c3ccc(NC(CCN(C)C)CSc4ccccc4)c([N+](=O)[O-])c3)cc2)CC1` (stereo unspecified), it took 150 nM to reach a half-maximal effect (EC50).
`COC1(Cc2ccccc2Br)CCN(c2ccc(C(=O)NS(=O)(=O)c3ccc(NC(CCN(C)C)CSc4ccccc4)c([N+](=O)[O-])c3)cc2)CC1` (stereo unspecified) gave a concentration for a half-maximal effect (EC50) of 100 nM.
In turn, `COC1(Cc2ccccc2-c2ccccc2)CCN(c2ccc(C(=O)NS(=O)(=O)c3ccc(NC(CCN(C)C)CSc4ccccc4)c([N+](=O)[O-])c3)cc2)CC1` (stereo unspecified) showed a concentration giving a half-maximal response (EC50) of 35 nM.
In turn, `COC1(Cc2ccc(-c3ccccc3)cc2)CCN(c2ccc(C(=O)NS(=O)(=O)c3ccc(NC(CCN(C)C)CSc4ccccc4)c([N+](=O)[O-])c3)cc2)CC1` (stereo unspecified) gave an EC50 of 600 nM.
The figure for `CN(C)CCC(CSc1ccccc1)Nc1ccc(S(=O)(=O)NC(=O)c2ccc(N3CCC(=Cc4ccccc4F)CC3)cc2)cc1[N+](=O)[O-]` (stereo unspecified) is 250 nM.
`CN(C)CCC(CSc1ccccc1)Nc1ccc(S(=O)(=O)NC(=O)c2ccc(N3CCC(=Cc4ccc(Cl)cc4)CC3)cc2)cc1[N+](=O)[O-]` (stereo unspecified) showed an EC50 of 619 nM.
Compound `CN(C)CCC(CSc1ccccc1)Nc1ccc(S(=O)(=O)NC(=O)c2ccc(N3CCC(=Cc4ccccc4C(F)(F)F)CC3)cc2)cc1[N+](=O)[O-]` (stereo unspecified) had a 50% effective concentration (EC50) of 150 nM.
`CN(C)CCC(CSc1ccccc1)Nc1ccc(S(=O)(=O)NC(=O)c2ccc(N3CCC(=Cc4ccc(C(F)(F)F)cc4)CC3)cc2)cc1[N+](=O)[O-]` (stereo unspecified) gave an EC50 of 2600 nM.
For `COc1ccccc1C=C1CCN(c2ccc(C(=O)NS(=O)(=O)c3ccc(NC(CCN(C)C)CSc4ccccc4)c([N+](=O)[O-])c3)cc2)CC1` (stereo unspecified), the EC50 was 300 nM.
Consider `CN(C)CCC(CSc1ccccc1)Nc1ccc(S(=O)(=O)NC(=O)c2ccc(N3CCC(=Cc4ccccc4C#N)CC3)cc2)cc1[N+](=O)[O-]` (stereo unspecified), for which it took 1100 nM to reach a half-maximal effect (EC50).
As for `CN(C)CCC(CSc1ccccc1)Nc1ccc(S(=O)(=O)NC(=O)c2ccc(N3CCC(=Cc4ccccn4)CC3)cc2)cc1[N+](=O)[O-]` (stereo unspecified), a half-maximal effect (EC50) was put at 550 nM.
`CN(C)CCC(CSc1ccccc1)Nc1ccc(S(=O)(=O)NC(=O)c2ccc(N3CCC(=Cc4cccnc4)CC3)cc2)cc1[N+](=O)[O-]` (stereo unspecified) had an EC50 of 1900 nM.
The compound `CN(C)CCC(CSc1ccccc1)Nc1ccc(S(=O)(=O)NC(=O)c2ccc(N3CCC(=Cc4ccccc4-c4ccccc4)CC3)cc2)cc1[N+](=O)[O-]` (stereo unspecified) showed an EC50 of 160 nM.
As for `Cc1ccccc1CN1CCN(c2ccc(C(=O)NS(=O)(=O)c3ccc(NC(CCN(C)C)CSc4ccccc4)c([N+](=O)[O-])c3)cc2)CC1` (stereo unspecified), the figure is 410 nM; as for `CN(C)CCC(CSc1ccccc1)Nc1ccc(S(=O)(=O)NC(=O)c2ccc(N3CCN(Cc4ccccc4C(F)(F)F)CC3)cc2)cc1[N+](=O)[O-]` (stereo unspecified), 390 nM.
As to `COc1ccccc1CN1CCN(c2ccc(C(=O)NS(=O)(=O)c3ccc(NC(CCN(C)C)CSc4ccccc4)c([N+](=O)[O-])c3)cc2)CC1` (stereo unspecified), the half-maximal effective concentration (EC50) is 390 nM.
Compound `CSc1ccccc1CN1CCN(c2ccc(C(=O)NS(=O)(=O)c3ccc(NC(CCN(C)C)CSc4ccccc4)c([N+](=O)[O-])c3)cc2)CC1` (stereo unspecified) showed an EC50 of 95.1 nM.
As for `CN(C)CCC(CSc1ccccc1)Nc1ccc(S(=O)(=O)NC(=O)c2ccc(N3CCN(Cc4ccccc4S(C)(=O)=O)CC3)cc2)cc1[N+](=O)[O-]` (stereo unspecified), the figure is 5500 nM.
Take `CN(C)CCC(CSc1ccccc1)Nc1ccc(S(=O)(=O)NC(=O)c2ccc(N3CCN(Cc4ccccc4NC4CCCCC4)CC3)cc2)cc1[N+](=O)[O-]` (stereo unspecified): it took 661 nM to reach a half-maximal effect (EC50).
In the case of `CN(C)CCC(CSc1ccccc1)Nc1ccc(S(=O)(=O)NC(=O)c2ccc(N3CCN(Cc4ccccc4C4CCCCC4)CC3)cc2)cc1[N+](=O)[O-]` (stereo unspecified), the EC50 is 340 nM.
Turning to `CN(C)CCC(CSc1ccccc1)Nc1ccc(S(=O)(=O)NC(=O)c2ccc(N3CCN(Cc4ccccc4-c4ccccc4)CC3)cc2)cc1[N+](=O)[O-]` (stereo unspecified), a half-maximal effect (EC50) was put at 18 nM.
`CN(C)CCC(CSc1ccccc1)Nc1ccc(S(=O)(=O)NC(=O)c2ccc(N3CCN(Cc4ccccc4-c4cccnc4)CC3)cc2)cc1[N+](=O)[O-]` (stereo unspecified) showed an EC50 of 800 nM.
The figure for `COc1cccc(-c2ccccc2CN2CCN(c3ccc(C(=O)NS(=O)(=O)c4ccc(NC(CCN(C)C)CSc5ccccc5)c([N+](=O)[O-])c4)cc3)CC2)c1` (stereo unspecified) is 380 nM.
Take `COc1ccc(-c2ccccc2CN2CCN(c3ccc(C(=O)NS(=O)(=O)c4ccc(NC(CCN(C)C)CSc5ccccc5)c([N+](=O)[O-])c4)cc3)CC2)cc1` (stereo unspecified): the EC50 was 30 nM.
`CN(C)CCC(CSc1ccccc1)Nc1ccc(S(=O)(=O)NC(=O)c2ccc(N3CCN(Cc4ccccc4-c4ccccc4Cl)CC3)cc2)cc1[N+](=O)[O-]` (stereo unspecified) showed an EC50 of 56 nM.
`CN(C)CCC(CSc1ccccc1)Nc1ccc(S(=O)(=O)NC(=O)c2ccc(N3CCN(Cc4ccccc4-c4cccc(Cl)c4)CC3)cc2)cc1[N+](=O)[O-]` (stereo unspecified) gave an EC50 of 180 nM.
As for `CN(C)CCC(CSc1ccccc1)Nc1ccc(S(=O)(=O)NC(=O)c2ccc(N3CCN(Cc4ccccc4-c4ccc(-c5ccccc5)cc4)CC3)cc2)cc1[N+](=O)[O-]` (stereo unspecified), the figure is 22 nM.
Consider `CN(C)CCC(CSc1ccccc1)Nc1ccc(S(=O)(=O)NC(=O)c2ccc(N3CCN(Cc4ccccc4-c4ccc(F)cc4)CC3)cc2)cc1[N+](=O)[O-]` (stereo unspecified), for which it took 130 nM to reach a half-maximal effect (EC50).
For `CN(C)CCC(CSc1ccccc1)Nc1ccc(S(=O)(=O)NC(=O)c2ccc(N3CCN(Cc4ccccc4-c4ccc(C(F)(F)F)cc4)CC3)cc2)cc1[N+](=O)[O-]` (stereo unspecified), the midpoint of the response, the EC50, lay at 40 nM.
Compound `CN(C)CCC(CSc1ccccc1)Nc1ccc(S(=O)(=O)NC(=O)c2ccc(N3CCN(Cc4ccccc4-c4ccc(S(C)(=O)=O)cc4)CC3)cc2)cc1[N+](=O)[O-]` (stereo unspecified) gave an EC50 of 460 nM.
